{"source": "patent US5989596A", "about": "“Compositions comprising a depigmenting agent consisting of sulfites and metabisulfites and plant extracts for use in inhibiting melanogenesis or for depigmenting” (Coletica, priority 1997, dated 1999)", "key": {"[1]": {"experiment": "Organoleptic (smell) and stability tests on storage, 4 weeks at 45° C.", "type": "physicochemical", "conditions": "pH 6.5, 4 weeks at 45° C.", "procedure": "Organoleptic tests have even been carried out on 5% sodium sulfite solutions or with 10% of a mulberry extract or 10 or with 20% with a lemon extract. These tests were led over 4 weeks at 45° C. at pH 5.5 and 6.5.\nAlso, organoleptic tests are then carried out on 5% sodium metabisulfite solutions with or without either 20% of a saxifrage extract or 10% of a grapefruit extract. These tests were led over 4 weeks at 45° C. at pH 5.5 and 6.5.\nOrganoleptic tests were also carried out on 5% potassium sulfite solutions with or without either 20% of a grape extract, or 10% of an oughon extract. It is to be noted that oughon is also called Scutelaria. These tests were led over 4 weeks at 45° C. at pH 5.5 and 6.5.\nOrganoleptic tests are then carried out on 5% potassium metabisulfite solutions with or without either 10% of a saxifrage extract, or 5% of an oughon extract +10% of a grapefruit extract. These tests were also led over 4 weeks at 45° C. at pH 5.5 and 6.5."}, "isolated tyrosinase": {"tested_on": "isolated tyrosinase", "experiment": "In vitro test of the inhibition of isolated tyrosinase (rate of dopachrome formation from L-Dopa, 475 nm)", "type": "biochemical", "excerpt": "It is known that tyrosinase is capable of catalyzing the formation of L-Dopaquinone and then dopachrome from L-Dopa. Now, dopachrome is a colored compound whose appearance is possible to follow by UV visible spectrophotometry at 475 nm. The use of an active capable of modifying the enzymatic activity manifests itself by a variation of the rate of appearance of this colored molecule.\nThe ratio of the rates of formation of dopachrome enable precisely determining the activations or the inhibitions obtained with the different molecules tested.\nThe anti-tyrosinase activity was measured, for various concentrations of this composition, by simple dilution with demineralized water."}, "[2]": {"molecular_target": "T1, endogenous tyrosinase in melanocytes of human skin explants (Homo sapiens, UniProt P14679)", "T1 construct": "oxidation of exogenous L-DOPA by endogenous tyrosinase; from tissue; host or cells: human abdominal skin explants from plastic surgery (melanocytes)", "T1 sequence (P14679 19-529)": "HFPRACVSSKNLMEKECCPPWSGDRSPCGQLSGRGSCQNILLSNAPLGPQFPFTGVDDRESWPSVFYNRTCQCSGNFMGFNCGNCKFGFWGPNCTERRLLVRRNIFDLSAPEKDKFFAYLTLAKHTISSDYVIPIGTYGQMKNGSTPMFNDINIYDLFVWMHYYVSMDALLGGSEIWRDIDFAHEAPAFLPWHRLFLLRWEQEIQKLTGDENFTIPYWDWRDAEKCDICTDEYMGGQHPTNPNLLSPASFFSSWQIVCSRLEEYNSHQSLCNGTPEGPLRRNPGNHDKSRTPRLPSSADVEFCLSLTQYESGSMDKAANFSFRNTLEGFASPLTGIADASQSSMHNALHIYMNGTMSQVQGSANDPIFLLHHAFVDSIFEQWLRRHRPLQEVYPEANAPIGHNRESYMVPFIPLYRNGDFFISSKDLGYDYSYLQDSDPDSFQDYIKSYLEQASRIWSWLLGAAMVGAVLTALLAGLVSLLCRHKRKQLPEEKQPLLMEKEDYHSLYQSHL", "experiment": "Ex vivo tissue model on human skin explant, histochemical L-DOPA reaction (anti-tyrosinase activity)", "type": "cell-based", "conditions": "0.55% (w/v), with L-DOPA 0.05 M, 15 hours at 37° C.", "protocol": "The oxidation of L-Dopa by the tyrosinase produces, in the melanocytes, a black pigment precursor of melanin which is easily detectable by optical microscopy with white light. The tyrosinase activity is determined by the intensity of the calorimetric reaction obtained.\nA positive control and a negative control are also carried out in parallel.\nThe various products in the study are incubated in the presence of L-DOPA (0.05 M) for 15 hours at 37° C.\nAfter fixing and inclusion in paraffin, the sections are colored with hemalun/eosin/saffron and with cresyl violet, they are then observed in white light by optical microscopy.\nThe tyrosinase activity is determined by the intensity of the calorimetric reaction obtained."}, "human melanocytes": {"tested_on": "human melanocytes", "conditions": "J. Soc. Cosmeti. Chem. 42, 361-368 (1991); cited from earlier work"}}, "data": [{"compound": "O=S([O-])[O-].[K+].[K+]", "note": "[potassium sulfite]", "values": [{"measurement": "smell (organoleptic test)", "setting": "[1]", "result": "very strong smell"}, {"measurement": "Results (inhibition) of tyrosinase", "setting": "isolated tyrosinase; concentration level 0.01%", "result": "more than 80%"}, {"measurement": "Results (inhibition) of tyrosinase", "setting": "isolated tyrosinase; concentration level 0.1%", "result": 98.10, "unit": "%"}, {"measurement": "Results (inhibition) of tyrosinase", "setting": "isolated tyrosinase; concentration level 1%", "result": 92.7, "unit": "%"}, {"measurement": "Results (inhibition) of tyrosinase", "setting": "isolated tyrosinase; concentration level 10%", "result": 100, "unit": "%"}]}, {"compound": "O=S([O-])S(=O)(=O)[O-].[Na+].[Na+]", "note": "[sodium metabisulfite]", "values": [{"measurement": "smell (organoleptic test)", "setting": "[1]", "result": "very strong smell"}, {"measurement": "tyrosinase inhibition (in words)", "setting": "isolated tyrosinase; concentration 0.01%", "result": "almost total"}, {"measurement": "Results (inhibition) of tyrosinase", "setting": "isolated tyrosinase; concentration level 0.1%", "result": 100, "unit": "%"}, {"measurement": "Results (inhibition) of tyrosinase", "setting": "isolated tyrosinase; concentration level 1%", "result": 100, "unit": "%"}, {"measurement": "Results (inhibition) of tyrosinase", "setting": "isolated tyrosinase; concentration level 10%", "result": 100, "unit": "%"}]}, {"compound": "Oc1ccc(O)cc1", "note": "[hydroquinone]", "values": [{"measurement": "inhibition of the formation of melanic pigments", "setting": "[2]", "result": "totally inhibits"}]}, {"compound": "O=C1O[C@H]([C@@H](O)CO)C(O)=C1O", "note": "[ascorbic acid]", "values": [{"measurement": "IC50 (concentration for which half of the cells placed in culture are no longer living)", "setting": "human melanocytes", "result": 880, "unit": "µg/mL"}]}, {"compound": "O=S([O-])[O-].[Na+].[Na+]", "note": "[sodium sulfite]", "values": [{"measurement": "Results (inhibition) of tyrosinase", "setting": "isolated tyrosinase; concentration level 0.01%", "result": 93.7, "unit": "%"}, {"measurement": "Results (inhibition) of tyrosinase", "setting": "isolated tyrosinase; concentration level 0.1%", "result": 100, "unit": "%"}, {"measurement": "Results (inhibition) of tyrosinase", "setting": "isolated tyrosinase; concentration level 1%", "result": 100, "unit": "%"}, {"measurement": "Results (inhibition) of tyrosinase", "setting": "isolated tyrosinase; concentration level 10%", "result": 100, "unit": "%"}]}, {"compound": "O=S([O-])S(=O)(=O)[O-].[K+].[K+]", "note": "[potassium metabisulfite]", "values": [{"measurement": "Results (inhibition) of tyrosinase", "setting": "isolated tyrosinase; concentration level 0.01%", "result": "more than 90%"}, {"measurement": "Results (inhibition) of tyrosinase", "setting": "isolated tyrosinase; concentration level 0.1%", "result": 93.63, "unit": "%"}, {"measurement": "Results (inhibition) of tyrosinase", "setting": "isolated tyrosinase; concentration level 1%", "result": 100, "unit": "%"}, {"measurement": "Results (inhibition) of tyrosinase", "setting": "isolated tyrosinase; concentration level 10%", "result": 100, "unit": "%"}]}]}
